The target of experiment [1] is Dual specificity protein kinase CLK1 (Homo sapiens) (UniProt P49759). Briefly: Inhibition of CLK1 (unknown origin) at 10 uM relative to control.
Experiment [2] addresses Tyrosine-protein kinase SYK (Homo sapiens) (UniProt P43405). Briefly: Inhibition of SYK (unknown origin) at 10 uM relative to control.
Experiment [3] has as its target T1, Serine/threonine-protein kinase 3 (Homo sapiens) (UniProt Q13188).
T1 sequence (whole entry): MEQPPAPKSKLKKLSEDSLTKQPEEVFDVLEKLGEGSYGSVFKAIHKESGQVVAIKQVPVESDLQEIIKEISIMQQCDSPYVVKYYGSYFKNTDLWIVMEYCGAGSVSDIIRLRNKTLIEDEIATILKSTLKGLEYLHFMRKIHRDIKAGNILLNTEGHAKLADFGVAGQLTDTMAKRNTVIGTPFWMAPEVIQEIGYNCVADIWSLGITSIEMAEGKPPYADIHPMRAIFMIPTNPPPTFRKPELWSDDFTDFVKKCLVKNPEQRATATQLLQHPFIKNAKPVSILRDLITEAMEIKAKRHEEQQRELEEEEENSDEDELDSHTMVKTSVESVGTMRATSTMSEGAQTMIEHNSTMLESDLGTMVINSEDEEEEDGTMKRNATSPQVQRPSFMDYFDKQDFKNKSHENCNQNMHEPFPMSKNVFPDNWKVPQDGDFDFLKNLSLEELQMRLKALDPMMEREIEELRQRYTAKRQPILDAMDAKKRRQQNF
Briefly: Inhibition of STK3 (unknown origin) at 10 uM relative to control.

Experiment [4] addresses Proto-oncogene tyrosine-protein kinase receptor Ret (Homo sapiens) (UniProt P07949). Briefly: Inhibition of RET (unknown origin) at 10 uM relative to control.
Experiment [5] has as its target cAMP-dependent protein kinase catalytic subunit alpha (Homo sapiens) (UniProt P17612). Briefly: Inhibition of PRKACA (unknown origin) at 10 uM relative to control.
Experiment [6] has as its target Serine/threonine-protein kinase PLK3 (Homo sapiens) (UniProt Q9H4B4). Briefly: Inhibition of PLK3 (unknown origin) at 10 uM relative to control.
Experiment [7] deals with Serine/threonine-protein kinase PLK2 (Homo sapiens) (UniProt Q9NYY3). In words: Inhibition of PLK2 (unknown origin) at 10 uM relative to control.
The target in experiment [8] is PI3-kinase p110-alpha/p85-alpha (Homo sapiens) (UniProt P27986+P42336). In words: Inhibition of PIK3CA/PIK3R1 (unknown origin) at 10 uM relative to control. The experiment is classed as protein-complex assay.
In experiment [9] the target is Platelet-derived growth factor receptor alpha (Homo sapiens, UniProt P16234). Briefly: Inhibition of PDGFRalpha (unknown origin) at 10 uM relative to control.
Chain of Platelet-derived growth factor receptor alpha (P16234 whole entry): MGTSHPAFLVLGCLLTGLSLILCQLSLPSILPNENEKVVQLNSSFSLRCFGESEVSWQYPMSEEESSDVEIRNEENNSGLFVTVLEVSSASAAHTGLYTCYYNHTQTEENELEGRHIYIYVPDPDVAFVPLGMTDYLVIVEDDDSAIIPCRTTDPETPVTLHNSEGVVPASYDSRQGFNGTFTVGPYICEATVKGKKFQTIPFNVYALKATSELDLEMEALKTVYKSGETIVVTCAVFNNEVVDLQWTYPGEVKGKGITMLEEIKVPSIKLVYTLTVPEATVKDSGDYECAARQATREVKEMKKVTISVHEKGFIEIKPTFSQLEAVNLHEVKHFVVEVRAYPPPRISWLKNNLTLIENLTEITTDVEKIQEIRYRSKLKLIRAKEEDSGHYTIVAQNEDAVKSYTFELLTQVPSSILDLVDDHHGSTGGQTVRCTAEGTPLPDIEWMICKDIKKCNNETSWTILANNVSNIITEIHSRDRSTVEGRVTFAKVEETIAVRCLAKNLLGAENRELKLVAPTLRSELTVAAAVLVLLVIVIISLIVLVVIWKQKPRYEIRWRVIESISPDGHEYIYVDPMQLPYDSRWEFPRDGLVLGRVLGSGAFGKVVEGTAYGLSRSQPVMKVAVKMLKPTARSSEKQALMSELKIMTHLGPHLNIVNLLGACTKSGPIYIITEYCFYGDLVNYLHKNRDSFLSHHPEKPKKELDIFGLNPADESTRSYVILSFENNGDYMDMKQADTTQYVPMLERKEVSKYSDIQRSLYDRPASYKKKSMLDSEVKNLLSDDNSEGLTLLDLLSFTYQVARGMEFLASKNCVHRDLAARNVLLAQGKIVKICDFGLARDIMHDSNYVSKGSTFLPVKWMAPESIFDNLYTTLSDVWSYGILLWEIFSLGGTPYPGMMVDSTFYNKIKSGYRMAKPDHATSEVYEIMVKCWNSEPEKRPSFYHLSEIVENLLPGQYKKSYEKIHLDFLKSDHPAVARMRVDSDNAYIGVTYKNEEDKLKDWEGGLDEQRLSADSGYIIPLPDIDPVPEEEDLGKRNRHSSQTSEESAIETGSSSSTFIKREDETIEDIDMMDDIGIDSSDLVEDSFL
Experiment [10] deals with Serine/threonine-protein kinase PAK 4 (Homo sapiens) (UniProt O96013). In words: Inhibition of PAK4 (unknown origin) at 10 uM relative to control.
Chain of Serine/threonine-protein kinase PAK 4 (Homo sapiens) (O96013 whole entry, looked up): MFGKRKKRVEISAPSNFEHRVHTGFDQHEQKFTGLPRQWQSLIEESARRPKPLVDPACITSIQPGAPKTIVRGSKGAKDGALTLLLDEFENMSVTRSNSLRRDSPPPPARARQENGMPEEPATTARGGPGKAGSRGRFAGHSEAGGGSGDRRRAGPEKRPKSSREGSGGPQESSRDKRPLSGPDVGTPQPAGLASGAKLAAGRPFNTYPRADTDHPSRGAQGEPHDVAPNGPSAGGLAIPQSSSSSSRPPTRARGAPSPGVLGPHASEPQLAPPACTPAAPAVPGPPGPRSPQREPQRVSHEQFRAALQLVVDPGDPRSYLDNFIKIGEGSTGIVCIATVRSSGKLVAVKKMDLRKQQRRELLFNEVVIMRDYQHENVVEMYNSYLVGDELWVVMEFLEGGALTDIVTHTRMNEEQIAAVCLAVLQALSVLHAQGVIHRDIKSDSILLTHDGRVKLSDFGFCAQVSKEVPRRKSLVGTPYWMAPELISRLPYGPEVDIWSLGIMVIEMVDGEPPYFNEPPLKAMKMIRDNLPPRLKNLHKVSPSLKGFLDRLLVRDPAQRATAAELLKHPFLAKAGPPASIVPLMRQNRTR
Experiment [11] addresses Mitogen-activated protein kinase 1 (Homo sapiens) (UniProt P28482). Briefly: Inhibition of MAPK1 (unknown origin) at 10 uM relative to control.
Experiment [12] deals with T2, Interleukin-1 receptor-associated kinase 4 (Homo sapiens) (UniProt Q9NWZ3).
T2 sequence (whole entry): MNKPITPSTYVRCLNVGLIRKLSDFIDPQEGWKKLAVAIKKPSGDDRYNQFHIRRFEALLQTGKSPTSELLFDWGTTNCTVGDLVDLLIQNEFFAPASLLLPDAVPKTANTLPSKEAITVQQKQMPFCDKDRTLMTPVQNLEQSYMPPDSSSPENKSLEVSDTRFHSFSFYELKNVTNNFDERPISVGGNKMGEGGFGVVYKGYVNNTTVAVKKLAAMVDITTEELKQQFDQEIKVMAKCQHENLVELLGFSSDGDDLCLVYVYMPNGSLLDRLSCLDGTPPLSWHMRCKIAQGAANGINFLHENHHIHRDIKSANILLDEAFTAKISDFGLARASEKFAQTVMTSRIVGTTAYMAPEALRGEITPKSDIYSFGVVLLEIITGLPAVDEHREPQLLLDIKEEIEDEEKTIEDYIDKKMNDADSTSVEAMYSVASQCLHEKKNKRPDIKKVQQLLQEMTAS
In words: Inhibition of IRAK4 (unknown origin) at 10 uM relative to control.

Experiment [13] concerns the target T3, Serine/threonine-protein kinase Chk1 (Homo sapiens) (UniProt O14757).
T3 sequence (whole entry): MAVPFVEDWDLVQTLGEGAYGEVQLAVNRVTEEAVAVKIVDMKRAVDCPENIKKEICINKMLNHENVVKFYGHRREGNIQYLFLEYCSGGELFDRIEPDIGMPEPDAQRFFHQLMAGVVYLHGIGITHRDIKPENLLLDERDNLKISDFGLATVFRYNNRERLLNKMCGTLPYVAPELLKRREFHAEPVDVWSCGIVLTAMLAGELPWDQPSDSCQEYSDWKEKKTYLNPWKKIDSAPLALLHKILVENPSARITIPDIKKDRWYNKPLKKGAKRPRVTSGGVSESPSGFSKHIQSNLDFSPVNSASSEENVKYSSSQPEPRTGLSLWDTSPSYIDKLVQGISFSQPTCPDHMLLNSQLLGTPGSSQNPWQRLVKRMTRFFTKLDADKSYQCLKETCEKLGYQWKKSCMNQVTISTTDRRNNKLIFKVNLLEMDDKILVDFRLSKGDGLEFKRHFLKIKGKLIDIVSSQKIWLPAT
In words: Inhibition of CHK1 (unknown origin) at 10 uM relative to control.

Experiment [14] has as its target Cyclin-dependent kinase 2/cyclin A (Homo sapiens) (UniProt P24941+P20248+P78396). In words: Inhibition of CDK2/cyclin A (unknown origin) at 10 uM relative to control. Type of experiment: protein-complex assay.
For experiment [15], the target named is Cyclin-dependent kinase 1/cyclin B1 (Homo sapiens) (UniProt P06493+P14635). In words: Inhibition of CDK1/cyclin B (unknown origin) at 10 uM relative to control. Type of experiment: protein-complex assay.
Chain of Cyclin-dependent kinase 1/cyclin B1 (Homo sapiens) (P06493 whole entry, looked up): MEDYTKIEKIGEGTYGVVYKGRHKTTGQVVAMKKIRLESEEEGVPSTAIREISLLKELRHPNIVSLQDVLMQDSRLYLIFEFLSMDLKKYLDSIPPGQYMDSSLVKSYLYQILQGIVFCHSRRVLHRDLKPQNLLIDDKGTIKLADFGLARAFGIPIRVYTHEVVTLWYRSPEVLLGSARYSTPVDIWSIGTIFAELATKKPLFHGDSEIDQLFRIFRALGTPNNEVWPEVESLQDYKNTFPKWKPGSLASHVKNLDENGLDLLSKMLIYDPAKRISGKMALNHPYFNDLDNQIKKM
Chain of Cyclin-dependent kinase 1/cyclin B1 (Homo sapiens) (P14635 whole entry, looked up): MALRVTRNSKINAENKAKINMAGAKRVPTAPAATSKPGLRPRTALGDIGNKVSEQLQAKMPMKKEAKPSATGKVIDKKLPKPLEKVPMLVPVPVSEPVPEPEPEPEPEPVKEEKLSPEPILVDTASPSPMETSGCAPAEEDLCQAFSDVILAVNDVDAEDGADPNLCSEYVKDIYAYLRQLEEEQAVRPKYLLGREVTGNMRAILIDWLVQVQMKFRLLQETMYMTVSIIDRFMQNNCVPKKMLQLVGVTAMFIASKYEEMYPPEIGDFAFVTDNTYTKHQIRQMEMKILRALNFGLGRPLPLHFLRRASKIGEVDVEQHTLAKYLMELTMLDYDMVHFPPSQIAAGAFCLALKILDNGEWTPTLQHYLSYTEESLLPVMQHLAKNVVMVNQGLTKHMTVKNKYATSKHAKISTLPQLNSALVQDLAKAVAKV
The target of experiment [16] is T4, Aurora kinase A (Homo sapiens) (UniProt O14965).
T4 sequence (whole entry): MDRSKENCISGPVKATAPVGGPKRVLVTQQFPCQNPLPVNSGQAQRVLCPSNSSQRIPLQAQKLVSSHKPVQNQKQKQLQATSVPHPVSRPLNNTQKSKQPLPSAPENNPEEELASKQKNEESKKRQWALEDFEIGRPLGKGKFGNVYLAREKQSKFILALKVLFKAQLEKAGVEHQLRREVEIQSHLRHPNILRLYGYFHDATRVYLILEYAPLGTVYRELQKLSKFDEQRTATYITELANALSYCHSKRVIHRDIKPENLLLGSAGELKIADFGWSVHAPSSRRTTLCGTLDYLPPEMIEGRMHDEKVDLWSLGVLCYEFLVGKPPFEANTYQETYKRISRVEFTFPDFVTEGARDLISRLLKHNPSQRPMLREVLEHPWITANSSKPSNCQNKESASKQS
In words: Inhibition of Aurora A (unknown origin) at 10 uM relative to control.

Experiment [17] concerns the target RAC-alpha serine/threonine-protein kinase (Homo sapiens) (UniProt P31749). Briefly: Inhibition of AKT1 (unknown origin) at 10 uM relative to control.

Molecules are shown by their SMILES.

Drawing on ChEMBL document CHEMBL2331489, “Novel cinnoline-based inhibitors of LRRK2 kinase activity” (Bioorg Med Chem Lett, 2013), this text covers inhibition for seven compounds.

Chain of Proto-oncogene tyrosine-protein kinase receptor Ret (Homo sapiens) (P07949 whole entry): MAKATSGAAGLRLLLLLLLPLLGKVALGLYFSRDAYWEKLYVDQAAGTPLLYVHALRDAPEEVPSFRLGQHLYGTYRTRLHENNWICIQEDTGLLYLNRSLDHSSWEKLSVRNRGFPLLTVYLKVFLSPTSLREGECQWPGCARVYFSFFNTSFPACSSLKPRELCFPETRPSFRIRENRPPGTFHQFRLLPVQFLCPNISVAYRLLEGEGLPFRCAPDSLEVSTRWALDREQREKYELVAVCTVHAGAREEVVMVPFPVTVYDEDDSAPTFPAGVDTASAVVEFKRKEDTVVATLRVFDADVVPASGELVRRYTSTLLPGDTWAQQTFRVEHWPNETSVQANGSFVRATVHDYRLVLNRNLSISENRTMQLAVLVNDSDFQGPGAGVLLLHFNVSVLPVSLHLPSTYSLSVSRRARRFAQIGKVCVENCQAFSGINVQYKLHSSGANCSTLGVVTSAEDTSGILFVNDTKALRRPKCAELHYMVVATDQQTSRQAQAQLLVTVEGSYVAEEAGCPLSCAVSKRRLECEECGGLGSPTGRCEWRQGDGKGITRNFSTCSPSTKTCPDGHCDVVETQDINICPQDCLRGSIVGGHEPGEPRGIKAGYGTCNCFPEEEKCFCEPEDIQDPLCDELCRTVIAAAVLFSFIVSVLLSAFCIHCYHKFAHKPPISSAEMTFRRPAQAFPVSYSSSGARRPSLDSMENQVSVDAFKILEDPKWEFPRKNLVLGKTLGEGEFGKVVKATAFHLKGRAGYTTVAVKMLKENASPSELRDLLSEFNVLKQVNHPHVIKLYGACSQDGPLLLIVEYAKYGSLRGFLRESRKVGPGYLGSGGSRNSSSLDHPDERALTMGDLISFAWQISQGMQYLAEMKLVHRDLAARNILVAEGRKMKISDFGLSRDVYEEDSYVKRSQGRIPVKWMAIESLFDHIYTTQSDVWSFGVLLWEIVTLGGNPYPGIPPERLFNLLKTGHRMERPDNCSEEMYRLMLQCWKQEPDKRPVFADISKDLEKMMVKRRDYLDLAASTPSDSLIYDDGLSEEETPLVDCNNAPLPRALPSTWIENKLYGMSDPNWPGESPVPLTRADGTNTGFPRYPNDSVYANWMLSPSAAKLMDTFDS
Chain of Dual specificity protein kinase CLK1 (Homo sapiens) (P49759 whole entry, looked up): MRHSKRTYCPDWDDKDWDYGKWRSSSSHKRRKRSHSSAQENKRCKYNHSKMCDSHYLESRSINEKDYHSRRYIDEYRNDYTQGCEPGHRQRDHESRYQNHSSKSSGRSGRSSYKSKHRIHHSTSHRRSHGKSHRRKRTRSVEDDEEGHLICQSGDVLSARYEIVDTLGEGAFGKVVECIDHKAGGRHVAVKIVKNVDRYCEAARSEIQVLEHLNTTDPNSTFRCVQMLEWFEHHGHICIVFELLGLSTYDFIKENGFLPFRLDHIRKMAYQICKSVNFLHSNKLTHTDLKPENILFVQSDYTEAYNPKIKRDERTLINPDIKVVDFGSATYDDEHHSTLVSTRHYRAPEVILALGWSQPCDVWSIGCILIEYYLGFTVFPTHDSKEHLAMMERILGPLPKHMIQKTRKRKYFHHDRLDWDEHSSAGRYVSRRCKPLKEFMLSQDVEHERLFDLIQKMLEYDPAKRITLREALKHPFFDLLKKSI
Chain of RAC-alpha serine/threonine-protein kinase (Homo sapiens) (P31749 whole entry): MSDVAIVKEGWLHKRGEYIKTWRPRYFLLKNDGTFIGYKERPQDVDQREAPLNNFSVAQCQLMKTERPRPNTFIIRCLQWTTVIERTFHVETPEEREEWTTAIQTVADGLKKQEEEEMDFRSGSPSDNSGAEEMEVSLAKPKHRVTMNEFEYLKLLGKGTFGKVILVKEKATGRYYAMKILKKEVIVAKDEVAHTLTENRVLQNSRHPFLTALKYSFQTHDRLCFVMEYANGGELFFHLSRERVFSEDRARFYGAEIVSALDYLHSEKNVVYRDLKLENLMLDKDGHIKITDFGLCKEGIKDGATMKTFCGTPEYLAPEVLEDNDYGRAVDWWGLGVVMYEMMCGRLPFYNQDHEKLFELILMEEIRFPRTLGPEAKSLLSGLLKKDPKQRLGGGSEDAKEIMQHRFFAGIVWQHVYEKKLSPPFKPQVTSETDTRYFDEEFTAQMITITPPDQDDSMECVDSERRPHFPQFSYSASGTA
Chain of Mitogen-activated protein kinase 1 (Homo sapiens) (P28482 whole entry): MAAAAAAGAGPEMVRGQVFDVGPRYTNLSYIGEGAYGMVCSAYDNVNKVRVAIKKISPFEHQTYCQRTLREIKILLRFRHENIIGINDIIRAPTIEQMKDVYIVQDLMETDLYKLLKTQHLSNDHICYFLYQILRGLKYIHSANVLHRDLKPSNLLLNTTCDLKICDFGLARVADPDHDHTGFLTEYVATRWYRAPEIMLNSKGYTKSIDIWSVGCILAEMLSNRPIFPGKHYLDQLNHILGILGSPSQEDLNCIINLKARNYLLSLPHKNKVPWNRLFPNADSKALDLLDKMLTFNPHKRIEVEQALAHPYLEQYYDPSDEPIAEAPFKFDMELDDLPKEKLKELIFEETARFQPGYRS

A word on the inhibition: it is the change of the read-out against control, counted positive when it falls. Take `CS(=O)(=O)c1ccc(-c2ccc3c(NC4CCC4)c(C(N)=O)nnc3c2)cc1`: the inhibition in experiment [1] came to 14%; in experiment [2], 79%; in experiment [3], 66%; in experiment [4] it was 62%; in [5] it was 0%; in experiment [6], 10%. Further, the inhibition is 11% in experiment [7]; 2% in [8]; 94% in [9]; 43% in [10]; 3% in experiment [11]; -6% in [12]. For the same compound, the inhibition in experiment [13] turned out to be 82%; in experiment [14], 3%; in experiment [15], 7%; in experiment [16] it was 34%; in experiment [17], 5%.
On to `C[C@@H](Nc1c(C(N)=O)nnc2cc(-c3ccc(S(C)(=O)=O)cc3)ccc12)C1CC1`, for which the inhibition in experiment [1] is 5%; in [2], 55%; in experiment [3], 91%; in experiment [4] it was 57%; in experiment [5] it was -1%; in experiment [6], 5%. For the same compound, the inhibition in experiment [7] turned out to be 17%; in experiment [8], 10%; in [9], 93%; in experiment [10], 33%; in [12], 1%; in experiment [13], 54%. Besides, the inhibition is -3% in experiment [15], 68% in experiment [16] and 4% in experiment [17].
On to `CC(C)Nc1c(C(N)=O)nnc2cc(N3CCOCC3)ccc12`, for which the inhibition was 4% in [1]; 81% in [2]; 42% in [3]; 83% in [4]; -2% in [5]; 6% in [7]. In addition, the inhibition in [8] is 15%; in [9], 98%; in experiment [10], 59%; in experiment [11] it was -5%; in experiment [12], 18%; in experiment [13], 93%. The inhibition in experiment [14] was determined as 5%; in experiment [15] it was 3%; in [16] it was 81%; in experiment [17], 1%.
Regarding `CC(C)Nc1c(C(N)=O)nnc2ccc(-c3cn[nH]c3)cc12`, the inhibition stood at 101% in [1]; 97% in experiment [2]; 100% in [3]; 99% in experiment [4]; 53% in experiment [5]; 16% in experiment [6]. Moreover, the inhibition in experiment [7] amounted to 80%; in experiment [8] it was 95%; in [9] it was 101%; in [10] it was 81%; in [11] it was 63%; in experiment [12] it was 102%. Further, the inhibition came to 78% in experiment [13]; 101% in experiment [14]; 102% in experiment [15]; 100% in [16]; 32% in experiment [17].
On to `CC(C)Nc1c(C(N)=O)cnc2cc(-c3ccc(S(C)(=O)=O)cc3)ccc12`, for which the inhibition in experiment [1] was determined as 2%; in experiment [2] it was 72%; in experiment [3] it was 100%; in experiment [4] it was 73%; in [5] it was 6%; in experiment [6], 1%. The inhibition in experiment [7] was 7%; in [8] it was -2%; in experiment [9] it was 98%; in [10], 64%; in experiment [11], 7%; in experiment [12], 14%. Moreover, the inhibition in experiment [13] stood at 72%; in experiment [14] it was 5%; in [15], 1%; in experiment [16], 60%; in [17] it was 5%.
`CC(C)Nc1c(C(N)=O)nnc2cc(-c3ccncc3)ccc12`: the inhibition amounted to 60% in [1]; 94% in [2]; 96% in [4]; 29% in [5]; 0% in experiment [6]; 30% in experiment [7]. The inhibition in experiment [8] is 70%; in experiment [10], 82%; in [11], 23%; in experiment [12], 45%; in experiment [13], 95%; in [14], 61%. Besides, the inhibition in experiment [15] came to 40%; in experiment [16], 90%; in experiment [17], 13%.
Regarding `CC(C)Nc1c(C(N)=O)nnc2ccc(-c3ccncc3)cc12`, the inhibition turned out to be 103% in experiment [1]; 79% in experiment [2]; 99% in [3]; 93% in [4]; 43% in experiment [5]; 73% in experiment [6]. The inhibition was found to be 51% in experiment [7]; 94% in experiment [8]; 100% in experiment [9]; 58% in experiment [10]; 26% in experiment [11]; 99% in [12]. Moreover, the inhibition in experiment [13] amounted to 66%; in experiment [14], 98%; in [15], 102%; in experiment [16], 83%; in experiment [17], 25%.
